# Patent publication US20220265635A1, “TREATMENT OF NEUROLOGICAL DISEASE” (Aclipse One Inc., priority 2018, published 2022)
# Marks after values point to notes of the source that are not given here.
# What was measured:
# TDP-43^Q331K mouse model [1] = experiment: Example 4 electrophysiology: repetitive stimulation; assay type: in vivo; settings: TDP-43^Q331K mice
# Procedure: (§1) Following genotyping, transgenic females were block randomized into three different dosing groups: vehicle once daily, 2.5 mg/kg (6aS)-6-methyl-5,6,6a,7-tetrahydro-4H-dibenzo[de,g]quinoline-10,11-diol twice daily and 5 mg/kg (6aS)-6-methyl-5,6,6a,7-tetrahydro-4H-dibenzo[de,g]quinoline-10,11-diol once daily. The doses were selected based on results of previous internal studies. Animals were weighed daily before dosing and dosed subcutaneously at 10 ml/kg with a solution of 0.5 mg/ml (6aS)-6-methyl-5,6,6a,7-tetrahydro-4H-dibenzo[de,g]quinoline-10,11-diol for the 5 mg/kg dose and 0.25 mg/ml for the 2.5 mg/kg dose. Where animals were dosed twice a day, the doses were at least 6 hours apart and the dosing solution was freshly made for the second dose of the day.
# (§2) The study was designed with two main cohorts of mice. One cohort was dosed from 25 days of age until 6 months of age and mice had behavioral testing throughout the study and consisted of 14 mice per group. The other satellite cohort was dosed from 25 days of age until 3 months of age, with no behavioral testing and consisted of 6 mice per group for target engagement and histological assessment. Behavioral tests that were carried out during the experiment were: accelerated rotarod test, gait analysis, and electrophysiology.
# Electrophysiological assessment of compound action muscle potential (CMAP) and repetitive stimulation was carried out at 6 weeks, 3 months and 6 months of age.
# Mice were anesthetized using gaseous isoflurane and then maintained under gaseous anesthesia using a nose cone for the duration of the experiment. Body temperature was maintained with a heat pad. The fur from the lower left limb was removed using an electric razor followed by hair removal cream in order to allow skin contact of the ring electrodes. Ring electrodes were covered in electrical paste and were placed around the ankle and thigh area of the shaved limb. […]
# Repetitive stimulation was carried out after the CMAP was calculated. […]
# dopamine receptors = settings: background description; cited from earlier work
# TDP-43^Q331K mouse model [2] = experiment: Example 4 catwalk gait analysis; assay type: in vivo; settings: TDP-43^Q331K mice
# Procedure: as §1, §2
# Gait analysis was carried out at 3 months and 6 months of age using the catwalk gait analysis system 7.1 (Noldus Information Technology B.V., Netherlands) and analyzed using Catwalk software 7.1. The software calculated many different gait parameters such as stride length, base of support (BOS) and swing time as well as step patterns and percentage of time spent on 2, 3 or 4 paws.
# On the day of the test mice were placed on the glass runway and allowed to run freely back and forth. About 6 straight, consistent runs were recorded by the camera for each mouse. The 3 best runs with the closest total run time were selected for each mouse for analysis. For these three runs, the paw prints were labelled in successive frames using the software, which then analyzed multiple gait parameters for each of the runs. Using Excel, the average of all three runs per mouse was calculated, followed by the average per group for each of the gait parameters.
# Gait analysis was performed using the catwalk system (Noldus) at both 3 and 6 months of age in 8 mice per group per timepoint. Traditionally in this model, the base of support increases with age, as shown in FIG. 9-13, represented the waddling or ‘swimming’ gait described in this strain.
# [3] = test system: heat shock protein Hspa8 and Hspa1a; experiment: Example 3 in vivo pharmacodynamic study via oral dosing: RT-qPCR of brain; settings: mouse brain, 25 mg/kg oral once daily 4 days; for Relative expression of Hspa1a normalized with Group 1 / Relative expression of Hspa8 normalized with Group 1: normalized to Actb
# Procedure: Wildtype mice were dosed orally at 25 mg/kg (6aS)-6-methyl-5,6,6a,7-tetrahydro-4H-dibenzo[de,g]quinoline-10,11-diol for 4 days once daily.
# A total of 36 mice were randomly divided into twelve groups. Each group had 3 mice. After oral administration of (6aS)-6-methyl-5,6,6a,7-tetrahydro-4H-dibenzo[de,g]quinoline-10,11-diol once a day for 4 consecutive days, brains of mice in each group were sampled individually at the time point of 0, 5, 15, 30 min, 1, 2, 3, 4, 8, 12, 24 and 48 hour post the last oral dose. A quarter of whole brain from each mouse in every time group underwent a real-time quantitative polymerase chain reaction (RT-qPCR) analysis. Before RNA extraction, brain tissues were frozen immediately in liquid nitrogen, and were transferred to −80° C. until further use.
# Total RNA from 36 frozen brain samples were extracted using Trizol reagent (Invitrogen, Carlsbad, Calif., USA, 15596018) according to the manufacturer's instructions. After extraction, the integrity of total RNA was be checked by 1% agarose gel staining with ethidium bromide as well as by nanodrop (Thermo Fisher, USA). Then, 2 μg of total RNA was used for reverse transcription by M-MLV Reverse Transcriptase (Invitrogen, 28025-013) with gDNA removal (NEB, M0303S). qRT-PCR analysis was performed using LightCycler® 480 Probe Master (4887301001, Roche, Basel, Switzerland) and the Roche LightCycler480 (Roche). The data from triplicate experiments were subjected to statistical analysis and the target genes were normalized against the levels of actin beta (Actb) mRNA. The primers are listed as follows: […]
# [4] = Group 3 (15 min) post last dose
# [5] = Group 4 (30 min) post last dose
# [6] = Group 10 (12 Hr) post last dose
# [7] = Group 11 (24 Hr) post last dose
# [8] = Group 12 (48 Hr) post last dose
smiles,measurement,setting,value
"CN1CCc2cccc3c2[C@@H]1Cc1ccc(O)c(O)c1-3 [(6aS)-6-methyl-5,6,6a,7-tetrahydro-4H-dibenzo[de,g]quinoline-10,11-diol]","repetitive stimulation, between the dose groups",TDP-43^Q331K mouse model [1]; 3 months,no significant difference
same,repetitive stimulation response compared to the vehicle dosing group,"TDP-43^Q331K mouse model [1]; 6 months of age, 2.5 mg/kg dose group, stimulation numbers 5 and 7",significant increase
same,repetitive stimulation response (percentage of the first stimulation) compared to vehicle,"TDP-43^Q331K mouse model [1]; 6 weeks of age, 2.5 mg/kg twice daily, final stimulation, significant difference",larger decrease in response
same,activity on dopamine receptors (in words),dopamine receptors,weak dopamine antagonist
same,"gait parameters (time spent on diagonal paws, on three or four paws) from 3 to 6 months",TDP-43^Q331K mouse model [2]; 2.5 mg/kg dosing group,relatively stable
same,"change in percentage of time spent on 3 paws between 3 months and 6 months of age, compared to vehicle",TDP-43^Q331K mouse model [2]; 2.5 mg/kg twice daily,significant decrease
same,change in percentage of time spent on diagonal paws between 3 months and 6 months of age,"TDP-43^Q331K mouse model [2]; 2.5 mg/kg twice daily, significant difference to vehicle, which has a decrease",slight increase
same,"gait parameters (time spent on diagonal paws, on three or four paws) from 3 to 6 months",TDP-43^Q331K mouse model [2]; 5 mg/kg dosing group,relatively stable
same,effect on swimming gait (base of support increasing with age),TDP-43^Q331K mouse model [2]; 3 and 6 months of age,did not limit this swimming gait
same,Relative expression of Hspa1a normalized with Group 1,[3]; Group 1 (0 min) post last dose,1.00
same,Relative expression of Hspa8 normalized with Group 1,[3]; Group 1 (0 min) post last dose,1.00
same,Relative expression of Hspa1a normalized with Group 1,[3]; Group 2 (5 min) post last dose,0.96
same,Relative expression of Hspa8 normalized with Group 1,[3]; Group 2 (5 min) post last dose,0.85
same,Relative expression of Hspa1a normalized with Group 1,[3]; [4],1.05
same,Relative expression of Hspa8 normalized with Group 1,[3]; [4],0.89
same,Relative expression of Hspa1a normalized with Group 1,[3]; [5],1.06
same,Relative expression of Hspa8 normalized with Group 1,[3]; [5],0.91
same,Relative expression of Hspa1a normalized with Group 1,[3]; Group 5 (1 Hr) post last dose,0.90
same,Relative expression of Hspa8 normalized with Group 1,[3]; Group 5 (1 Hr) post last dose,0.92
same,Relative expression of Hspa1a normalized with Group 1,[3]; Group 6 (2 Hr) post last dose,1.02
same,Relative expression of Hspa8 normalized with Group 1,[3]; Group 6 (2 Hr) post last dose,0.96
same,Relative expression of Hspa1a normalized with Group 1,[3]; Group 7 (3 Hr) post last dose,1.10
same,Relative expression of Hspa8 normalized with Group 1,[3]; Group 7 (3 Hr) post last dose,0.96
same,Relative expression of Hspa1a normalized with Group 1,[3]; Group 8 (4 Hr) post last dose,1.09
same,Relative expression of Hspa8 normalized with Group 1,[3]; Group 8 (4 Hr) post last dose,1.01
same,Relative expression of Hspa1a normalized with Group 1,[3]; Group 9 (8 Hr) post last dose,2.25*
same,Relative expression of Hspa8 normalized with Group 1,[3]; Group 9 (8 Hr) post last dose,1.11
same,Relative expression of Hspa1a normalized with Group 1,[3]; [6],1.33*
same,Relative expression of Hspa8 normalized with Group 1,[3]; [6],1.17**
same,Relative expression of Hspa1a normalized with Group 1,[3]; [7],1.04
same,Relative expression of Hspa8 normalized with Group 1,[3]; [7],1.14**
same,Relative expression of Hspa1a normalized with Group 1,[3]; [8],1.04
same,Relative expression of Hspa8 normalized with Group 1,[3]; [8],0.99
same,Hspa1a mRNA level compared with group 1 (in words),"[3]; group 9 and 10 (8 Hr, 12 Hr)",significant increase
same,mRNA expression levels of Hspa8 compared with group 1 (in words),"[3]; group 10 and 11 (12 Hr, 24 Hr)",slight increase
same,group in which Hspa1a mRNA level reached a peak,[3]; group 9 = 8 Hr post last dose,group 9
